Data reported in BigSolDB 2.1.

C=C1C[C@]23C[C@H]1CC[C@H]2[C@@]12CC[C@H](O)[C@@](C)(C(=O)O1)[C@H]2[C@@H]3C(=O)O
solubility (mole fraction) (in acetone, 278.15 K): 0.053
solubility (mole fraction) (in acetone, 283.15 K): 0.057
solubility (mole fraction) (in acetone, 288.15 K): 0.0596
solubility (mole fraction) (in acetone, 293.15 K): 0.0645
solubility (mole fraction) (in acetone, 298.15 K): 0.0692
solubility (mole fraction) (in acetone, 303.15 K): 0.0759
solubility (mole fraction) (in acetone, 308.15 K): 0.0801
solubility (mole fraction) (in acetone, 313.15 K): 0.0862
solubility (mole fraction) (in acetone, 318.15 K): 0.0917
solubility (mole fraction) (in acetone, 323.15 K): 0.0983
solubility (mole fraction) (in acetone, 328.15 K): 0.106
solubility (mole fraction) (in acetone, 333.15 K): 0.112
solubility (mole fraction) (in acetonitrile, 278.15 K): 0.00391
solubility (mole fraction) (in acetonitrile, 283.15 K): 0.00457
solubility (mole fraction) (in acetonitrile, 288.15 K): 0.00529
solubility (mole fraction) (in acetonitrile, 293.15 K): 0.00647
solubility (mole fraction) (in acetonitrile, 298.15 K): 0.00776
solubility (mole fraction) (in acetonitrile, 303.15 K): 0.00907
solubility (mole fraction) (in acetonitrile, 308.15 K): 0.0108
solubility (mole fraction) (in acetonitrile, 313.15 K): 0.0124
solubility (mole fraction) (in acetonitrile, 318.15 K): 0.0135
solubility (mole fraction) (in acetonitrile, 323.15 K): 0.0149
solubility (mole fraction) (in acetonitrile, 328.15 K): 0.0168
solubility (mole fraction) (in acetonitrile, 333.15 K): 0.0188
solubility (mole fraction) (in ethanol, 278.15 K): 0.000809
solubility (mole fraction) (in ethanol, 283.15 K): 0.000911
solubility (mole fraction) (in ethanol, 288.15 K): 0.00107
solubility (mole fraction) (in ethanol, 293.15 K): 0.00118
solubility (mole fraction) (in ethanol, 298.15 K): 0.00133
solubility (mole fraction) (in ethanol, 303.15 K): 0.00159
solubility (mole fraction) (in ethanol, 308.15 K): 0.00187
solubility (mole fraction) (in ethanol, 313.15 K): 0.00217
solubility (mole fraction) (in ethanol, 318.15 K): 0.00257
solubility (mole fraction) (in ethanol, 323.15 K): 0.00273
solubility (mole fraction) (in ethanol, 328.15 K): 0.00318
solubility (mole fraction) (in ethanol, 333.15 K): 0.00387
solubility (mole fraction) (in ethyl acetate, 278.15 K): 0.0105
solubility (mole fraction) (in ethyl acetate, 283.15 K): 0.0118
solubility (mole fraction) (in ethyl acetate, 288.15 K): 0.0134
solubility (mole fraction) (in ethyl acetate, 293.15 K): 0.0157
solubility (mole fraction) (in ethyl acetate, 298.15 K): 0.0172
solubility (mole fraction) (in ethyl acetate, 303.15 K): 0.0195
solubility (mole fraction) (in ethyl acetate, 308.15 K): 0.0211
solubility (mole fraction) (in ethyl acetate, 313.15 K): 0.0239
solubility (mole fraction) (in ethyl acetate, 318.15 K): 0.0265
solubility (mole fraction) (in ethyl acetate, 323.15 K): 0.0299
solubility (mole fraction) (in ethyl acetate, 328.15 K): 0.0325
solubility (mole fraction) (in ethyl acetate, 333.15 K): 0.0357
solubility (mole fraction) (in isopropanol, 278.15 K): 0.0691
solubility (mole fraction) (in isopropanol, 283.15 K): 0.0745
solubility (mole fraction) (in isopropanol, 288.15 K): 0.0775
solubility (mole fraction) (in isopropanol, 293.15 K): 0.0859
solubility (mole fraction) (in isopropanol, 298.15 K): 0.0916
solubility (mole fraction) (in isopropanol, 303.15 K): 0.0969
solubility (mole fraction) (in isopropanol, 308.15 K): 0.103
solubility (mole fraction) (in isopropanol, 313.15 K): 0.11
solubility (mole fraction) (in isopropanol, 318.15 K): 0.12
solubility (mole fraction) (in isopropanol, 323.15 K): 0.123
solubility (mole fraction) (in isopropanol, 328.15 K): 0.131
solubility (mole fraction) (in isopropanol, 333.15 K): 0.14
solubility (mole fraction) (in methanol, 278.15 K): 0.0466
solubility (mole fraction) (in methanol, 283.15 K): 0.051
solubility (mole fraction) (in methanol, 288.15 K): 0.0559
solubility (mole fraction) (in methanol, 293.15 K): 0.0637
solubility (mole fraction) (in methanol, 298.15 K): 0.0705
solubility (mole fraction) (in methanol, 303.15 K): 0.0743
solubility (mole fraction) (in methanol, 308.15 K): 0.0805
solubility (mole fraction) (in methanol, 313.15 K): 0.0882
solubility (mole fraction) (in methanol, 318.15 K): 0.0933
solubility (mole fraction) (in methanol, 323.15 K): 0.101
solubility (mole fraction) (in methanol, 328.15 K): 0.11
solubility (mole fraction) (in methanol, 333.15 K): 0.121
solubility (mole fraction) (in n-butanol, 278.15 K): 0.0588
solubility (mole fraction) (in n-butanol, 283.15 K): 0.0613
solubility (mole fraction) (in n-butanol, 288.15 K): 0.0674
solubility (mole fraction) (in n-butanol, 293.15 K): 0.0723
solubility (mole fraction) (in n-butanol, 298.15 K): 0.0762
solubility (mole fraction) (in n-butanol, 303.15 K): 0.0798
solubility (mole fraction) (in n-butanol, 308.15 K): 0.0836
solubility (mole fraction) (in n-butanol, 313.15 K): 0.0872
solubility (mole fraction) (in n-butanol, 318.15 K): 0.0931
solubility (mole fraction) (in n-butanol, 323.15 K): 0.1
solubility (mole fraction) (in n-butanol, 328.15 K): 0.109
solubility (mole fraction) (in n-butanol, 333.15 K): 0.119
solubility (mole fraction) (in water, 278.15 K): 9e-06
solubility (mole fraction) (in water, 283.15 K): 1.2e-05
solubility (mole fraction) (in water, 288.15 K): 1.7e-05
solubility (mole fraction) (in water, 293.15 K): 2.1e-05
solubility (mole fraction) (in water, 298.15 K): 2.8e-05
solubility (mole fraction) (in water, 303.15 K): 3.4e-05
solubility (mole fraction) (in water, 308.15 K): 4.4e-05
solubility (mole fraction) (in water, 313.15 K): 5.3e-05
solubility (mole fraction) (in water, 318.15 K): 6.1e-05
solubility (mole fraction) (in water, 323.15 K): 7.3e-05
solubility (mole fraction) (in water, 328.15 K): 9.2e-05
solubility (mole fraction) (in water, 333.15 K): 0.00012
